Key:
Assay type in all cases: physicochemical
[1] = Mass loss of PCDS diffuser with isopropyl myristate as solvent; conditions: 2% F3 in isopropyl myristate, 170 grams, over 14 days
Description: The first step in solvent validation consists in preparing a device comprising a glass bottle containing a 2% solution of a known pheromone (feline facial pheromone F3) in isopropyl myristate (also termed Myristic acid isopropyl ester, IUPAC name Propan-2-yl tetradecanoate). The initial weight of solution placed in the bottle is 170 grams. Monitoring is carried out over 14 days, with weighing at DO, D7 and D14.

[2] = DAP PCDS direct diffusion (SPME-GC/MS); conditions: DAP/PCDS diffuser, 40 mL, 6 capillaries
Description: Three diffusers, each containing 40 mL of solution and 6 capillaries, were prepared and diffused. The first points were measured at T=1d, T=2, and T=3d, then every Monday, Wednesday and Friday of each study week until the diffusers no longer contained any solution. To measure the pheromone released into the air at each study time, the diffuser is first weighed (with the sticks) to measure mass loss, then placed in an enclosed area (in this case, an upside-down aquarium) containing a SPME fiber, as shown in FIG. 24.
The fiber is left to diffuse above the diffuser for 2 hours (a time determined in a previous method development as the optimum time for molecules to adsorb to the phase), then analyzed using the gas chromatography/mass spectrometry (GC/MS) technique.
Three diffusers were studied for greater accuracy. The chromatograms obtained are reprocessed using GC/MS Solution software.
For each chromatographic peak, the area is recorded using GC/MS Solution software, then entered into an Excel spreadsheet. Diffusion curves giving the area of the chromatographic peak corresponding to each active ingredient as a function of time are then plotted.
Analyses were carried out by gas chromatography/mass spectrometry (GC/MS). The instrument was a Shimadzu GCMS QP2010SE® equipped with an AOC 6000® autosampler. Separation was carried out on a ZB-FFAP® column (30 m×0.25 mm×0.25 μm, stationary phase: nitroterephthalic acid-modified polyethylene glycol) supplied by Phenomenex. The furnace temperature was initially set at 80° C. for 1 minute, then increased at 10° C./min to 240° C. and maintained at this temperature for 2 minutes. The carrier gas was helium at a flow rate of 1 mL/min. Analysis time is 19 minutes.
The injector is a split/splitless injector used in split mode (temperature: 250° C., split: 50:1). The SPME fiber was injected directly into the injector and left to desorb for 15 minutes.
The separated molecules were detected using a mass spectrometer equipped with an electron impact source (temperature: 200° C.). The analyzer is a simple quadrupole. The interface temperature is 250° C. Data were acquired in FASST mode (Fast automated SCAN/SIM type), i.e. part of the analysis was performed by scanning all ions (SCAN) and part by selecting specific ions (SIM). Target molecules were thus analyzed using ion selection.

[3] = DAP quantification at the top of the capillaries (GC/FID); conditions: top of the rods
Description: For this study, three diffusers containing 40 mL of solution and 6 capillaries were used for diffusion. Each week, a diffuser was weighed and the pheromone contained in the liquid solution and on the top of the capillaries was quantified by gas chromatography with flame ionization detector (GC/FID). To quantify the pheromone at the top of the capillaries, approximately 1 cm of the top of the capillaries is cut off with scissors and 0.1 g of the capillary tops is placed in a 25 mL volumetric flask. Acetone is then added up to the beginning of the neck, and the flask is placed in an ultrasonic bath for one hour. Acetone is then topped up to volume, and an aliquot of solution is taken and filtered through a syringe filter for GC/FID analysis. DAP is then quantified by external calibration. For this, five solutions with concentrations ranging from 50% to 150% of the target value (100% being the target value) are prepared to cover a wide concentration range (protocol for preparing the standard range not shown but available). Analyses were carried out using gas chromatography with a flame ionization detector. The instrument was a Shimadzu GC 2025AF® equipped with an AOC20i® autosampler. Separation was carried out on a DB-WAX UI® column (20 m×0.18 mm×0.30 μm, polyethylene glycol (PEG) stationary phase) supplied by Agilent. The oven temperature was initially set at 90° C. and held for 2 minutes, then increased at 20° C./min to 160° C. and held at this temperature for 5 minutes. Finally, the temperature was increased at 20° C./min to 220° C. and held at this temperature for 5 minutes. The carrier gas is helium at a flow rate of 1 mL/min. Analysis time was thus 18.5 minutes. The injector is a split/splitless injector used in split mode (temperature: 230° C., split: 50:1, injected quantity: 1 μL). The detector is a flame ionization detector (FID). Its temperature is 240° C., the hydrogen flow rate is 40 mL/min and the air flow rate is 400 mL/min. A cleaning gas, dinitrogen, is also present at a flow rate of 30 mL/min.

[4] = F3P PCDS indirect diffusion, pheromone remaining in solution (GC/FID)
Description: For this study, three diffusers each containing 40 mL of product and 6 capillaries were prepared and diffused. Once a week, on Wednesdays, the amount of pheromone remaining in the solution was monitored by gas chromatography analysis coupled to a flame ionization detector (GC/FID) until no liquid remained. The percentage of pheromone was measured weekly.
Next, the percentage of pheromone was checked by external calibration using a GC/FID calibration range.
Analyses were carried out by gas chromatography coupled to a flame ionization detector. The instrument was a Shimadzu GC 2025® with an AOC20i® autosampler. Separation was performed on an Agilent DB-FFAP® column (30 m×0.25 mm×0.25 μm, stationary phase: nitroterephthalic acid-modified polyethylene glycol). The temperature of the gas chromatography oven was initially maintained at 140° C. for 2 minutes, then increased at 10° C./min to 250° C. and left at this temperature for 3 minutes. The carrier gas was helium at 1 mL/min. Analyses were performed in split mode using a split/splitless injector (temperature: 250° C., split: 1:50).
The detector used was a flame ionization detector. The detector temperature was 250° C. with an air flow rate of 400 mL/min, hydrogen 40 mL/min and nitrogen 30 mL/min.
For this purpose, a calibration range was prepared for each analysis. […]

[5] = Ratios of molecules diffused through the sticks over time
Description: Furthermore, as small molecules diffuse more, it happens that they lose intensity over the course of the study, so the ratios are different 24 hours after immersing the sticks in the liquid and 21 days later. Here are the ratios for each pheromone studied at the start of the study and at the end.

[6] = Direct diffusion of diffuser blocks (SPME GC/MS); conditions: despecified pheromone 2%, 4 weeks
Description: Analyses were carried out using gas chromatography (GC) coupled to a mass spectrometer (MS) detector, a technique commonly referred to as GCMS. The molecules of interest were extracted using the Solid Phase Micro-Extraction (SPME) technique. The instrument used was the following: QP2010SE® from Shimadzu (See FIG. 4).
AOC 6000® automatic feeder • Extraction/SPME fiber: polyacrylate/Fused silica (85 μm), 23 Ga. • Adsorption time: 2 hours (exposure time of fiber above block) (See FIG. 4) • Desorption time: 30 minutes (fiber exposure time in injector) • Fiber-block distance: 2 cm • Injection: split/splitless injector • Temperature: 250° C., split 50 mode. • Separation: ZB-FFAP® column (Phénomenex), length: 30 m, diameter: 250 μm, film thickness: […]
• Carrier gas: Helium (He) • Analysis time: 18 min (not including time to return to equilibrium between each analysis injection • Detection: mass spectrometer with electron impact source/analyzer: quadrupole. • Source temperature: 200° C. • Interface temperature: 250° C. • Scan m/z 50 to m/z 500 • SIM with ions 55, 66 and 74.
Analyses were carried out in triplicate to verify reproducibility of results.
With the SPME method, results are evaluated by measuring the chromatographic peak area. The data have been plotted on diffusion curve (see FIGS. 5 and 6).

[7] = Direct diffusion of rod diffuser (SPME GC/MS); conditions: despecified pheromone 2%
Description: This is exactly the same analytical method used for the diffuser block study. The study setup is shown below, also with a two-hour adsorption time-See FIG. 12 showing the set-up. Because of the height of the passive diffusion device, the fiber mounting bracket will not be the same for the block and for the rod device. The distance between the fiber and the device is 10 cm. With the SPME method, results are evaluated by measuring the chromatographic peak area. The data have been plotted to produce a diffusion curve.

[8] = Indirect assay of rod diffuser solution (GC/FID); conditions: stick diffuser solution, despecified pheromone
Description: Solution integrity was checked at each analysis time. Before each indirect assay, the vial was weighed to visualize mass loss over time. Each vial contained six sticks. • Specifications: the solution must lose mass over time. • Result: Compliant—See FIG. 9 This is the same analytical method as for the diffuser block study, only the sample preparation differs. 1.25 g of solution were weighed into a 25 mL volumetric flask and the volume made up to the mark with acetone. The resulting solution is transferred to a 1.5 mL GC vial for analysis. This is exactly the same calibration range as for the diffuser block study.

[9] = Indirect assay of diffuser blocks (GC/FID, pheromone remaining in the block); conditions: despecified pheromone
Description: Analyses were carried out using the gas chromatography (GC) technique with a flame ionization detector (FID), commonly known as GC/FID. The instrument used was the Shimadzu GC2025.® • Injection: Quantity injected: 1 μL, split 50:1, temperature: 230° C. • Separation: DB-WAX column (Agilent), length: 20 m, diameter: 180 μm, film thickness: […] • Carrier gas: Helium (He) • Analysis time: 11.50 min (not including time to return to equilibrium between each analysis) injection). • Detection: FID, temperature: 250° C., flow rates: H2: 40 mL/min, Air: 400 mL/min, Nitrogen (make-up): 30 mL/min. To obtain a representative sample, “cores” were drilled at various positions in the block and then collected. 2.5 g of gel were weighed into a 50 mL volumetric flask and the volume made up to the beginning of the neck of the flask with acetone. The flask was then placed in an ultrasonic bath for one hour until the block was dissolved (a white precipitate was obtained), then acetone was added to the mark. An aliquot of this solution was placed in a syringe fitted with a syringe filter and filtered to obtain a translucent solution. The resulting solution was transferred to a 1.5 mL GC vial for analysis. The assays were carried out using a calibration range.

[10] = Pheromone migrated to the stick tips (GC/FID); conditions: on stick tips, despecified pheromone
Description: In the course of this study, we also measured the amount of pheromone migrating on the sticks, to check that the pheromone had migrated to the top of the sticks, helping it to diffuse into the air. To do this, the test is the same as for the diffuser blocks: 2.5 g of stick tips are cut off and placed in a 50 mL flask, which is then placed in an ultrasonic bath for one hour. The resulting solution is filtered (to avoid injecting particles into the instrument) and placed in a chromatographic vial for analysis.

[11] = DAP, 24 h after immersion of sticks
[12] = DAP, 21 days after immersion of sticks (empty tank)
[13] = F3P, 24 h after immersion of the sticks
[14] = F3P, 21 days after immersion of sticks (empty tank)

## CCCCCCCCCCCCCC(=O)OC(C)C [isopropyl myristate, Propan-2-yl tetradecanoate]
[1]
  mass loss of the PCDS diffuser: virtually non-existent

## CCCCCCCCCCCC(=O)OC [methyl laurate, methyl dodecanoate]
[2]
  direct diffusion over time: decreases slightly over time
[3]; T = 6 j (instead of 2%)
  Proportion of methyl laurate in the DAP pheromone: laurate: 1.2%
[3]; T = 22 j (instead of 2%)
  Proportion of methyl laurate in the DAP pheromone: laurate: 0.4%
[3]; T = 13 d (instead of 2%)
  Proportion of methyl laurate in the DAP pheromone: laurate: 0.5%
[4]
  quantities found in the solution: very low
[5]; [11]
  ratio of molecules diffused through the sticks: 51 % (w/w)
[5]; [12]
  ratio of molecules diffused through the sticks: 37 % (w/w)
[5]; [13]
  ratio of molecules diffused through the sticks: 20 % (w/w)
[5]; [14]
  ratio of molecules diffused through the sticks: 17.5 % (w/w)

## CCCCCCCCCCCCCC(=O)OC [methyl myristate, methyl tetradecanoate]
[2]
  direct diffusion over time: stable over time
[6]
  direct diffusion from the diffuser block: diffuse better
[7]
  direct diffusion, rod system compared with diffuser block: better in the blocks than in the rod system
[8]; day 0
  % of the active ingredient in the pheromone: 11.9%
[8]; day 7
  % of the active ingredient in the pheromone: 11.9%
[8]; day 14
  % of the active ingredient in the pheromone: 11.9%
[8]; day 21
  % of the active ingredient in the pheromone: 11.4%
[5]; [11]
  ratio of molecules diffused through the sticks: 27 % (w/w)
[5]; [12]
  ratio of molecules diffused through the sticks: 33.5 % (w/w)
[5]; Despecified pheromone (Core), 5 days after immersion of the sticks
  ratio of molecules diffused through the sticks: 76 % (w/w)
[5]; Despecified pheromone (Core), 21 days after immersion of sticks (empty tank)
  ratio of molecules diffused through the sticks: 70 % (w/w)
[5]; [13]
  ratio of molecules diffused through the sticks: 4 % (w/w)
[5]; [14]
  ratio of molecules diffused through the sticks: 8.7 % (w/w)
[9]; day 0
  % of the active ingredient in the pheromone: 12%
[9]; day 7
  % of the active ingredient in the pheromone: 11.9%
[9]; day 14
  % of the active ingredient in the pheromone: 11.9%
[9]; day 21
  % of the active ingredient in the pheromone: 11.7%
[9]; day 28
  % of the active ingredient in the pheromone: 11.7%
[10]; day 7
  % of the active ingredient in the pheromone: 9.2%
[10]; day 14
  % of the active ingredient in the pheromone: 8.2%
[10]; day 21
  % of the active ingredient in the pheromone: 6.4%

From patent publication US20250248393A1, “METHOD OF RELEASING A SEMIOCHEMICAL IN THE ENVIRONEMENT BY PASSIVE DIFFUSION, SYSTEM AND MEANS, ESPECIALLY STICKS, TO THIS END, AND USES THEREOF” (SIGNS, priority 2024, published 2025)
